Source: paper PMC10981309, “Dual-targeting tigecycline nanoparticles for treating intracranial infections caused by multidrug-resistant Acinetobacter baumannii” (Journal of Nanobiotechnology, 2024)
Values after ≈ are worked out from the molar mass of the structure shown.

Key:
[1] = tested on: bEnd.3 cells; experiment: Cell cytotoxicity, MTT assay; assay type: cell-based; conditions: 24-h incubation, across a range of TGC concentrations
[2] = In vitro drug release, dialysis method in PBS pH 7.4; assay type: physicochemical; conditions: PBS pH 7.4, 37 °C
Procedure: An in vitro drug release study was conducted employing the dialysis method, with phosphate-buffered saline (PBS, pH = 7.4) as the release medium. For this study, 2 mL aliquots of free Tigecycline (TGC), CSs, or Aβ11/T80@CSs (each containing 1 mg of TGC) were sealed in dialysis bags with a molecular weight cutoff of 3.5 kDa. These bags were then immersed in 30 mL of PBS and gently agitated at 37 °C. At predetermined time intervals, 1.0 mL of PBS was sampled from outside each dialysis bag for HPLC analysis, and an equivalent volume of fresh PBS was replenished to maintain a constant volume in the release medium.

[3] = Histological analysis (H&E) of heart, liver, spleen, lungs and kidneys; assay type: in vivo, rats; conditions: compared to normal control group
From the text: To further investigate the biosafety of the various formulations in vivo, blood samples were collected post-administration for biochemical analysis. After euthanizing the rats, their heart, liver, spleen, lung, and kidney tissues were harvested. These tissues underwent hematoxylin and eosin (H&E) staining and were subsequently imaged using a pathology slide scanner.

[4] = tested on: multidrug-resistant A. baumannii; experiment: Minimum inhibitory concentration, microbroth dilution; assay type: cell-based; conditions: Acinetobacter baumannii; 1 × 10^5 CFU/mL, 24 h, OD 600 nm
Procedure: Mid-log phase bacteria, diluted to 1 × 10^5 CFU/mL, were mixed with these compounds (0.125–16 μg/mL) and incubated in 96-well plates for 24 h, with bacterial density measured at 600 nm. In a rat model, MDR A. baumannii was injected intracisternally (20 μL, 1 × 10^8 CFU/mL) into the CSF. […] CSF was collected after 24 h and cultured, with colony counts noted after 24 h at 37 °C.

[5] = Pharmacokinetics after intravenous injection; assay type: in vivo; conditions: female, Sprague-Dawley, rat, rats, i.v. 12.5 mg/kg TGC, plasma
Procedure: In the pharmacokinetic study, adult female Sprague–Dawley rats, weighing between 200 and 250 g, were used. Prior to the experiment, the animals were fasted overnight with free access to water. […] Each group received an intravenous administration of TGC at a dose of 12.5 mg/kg via the tail vein. Blood samples were collected at predetermined time points (0.25, 0.5, 1, 2, 4, 6, and 8 h), and then placed into 2 mL Eppendorf tubes. These samples were centrifuged at 10,000 rpm for 10 min at 4 °C to separate the plasma. A portion of the plasma was mixed with methanol in a 1:4 volume ratio and further centrifuged at 13,000 rpm for 10 min at 4 °C. The supernatant was collected for TGC concentration determination using HPLC. Pharmacokinetic parameters were subsequently calculated using the statistical analysis tool DAS2.

[6] = tested on: bEnd.3 cells monolayer; experiment: Transmembrane transport assay, in vitro BBB model; assay type: in vitro ADME; conditions: bEnd.3 Transwell monolayer, apical to basolateral, TGC by HPLC
Procedure: An in vitro blood–brain barrier (BBB) model using bEnd.3 cells was developed to assess nanoparticle penetration. 2.0 × 10^5 cells were cultured in a Transwell chamber, achieving an intercellular compactness verified at 200 Ω·cm^2 transendothelial electrical resistance. […] Using Hank's Balanced Salt Solution, nanoparticles were added to the apical side and co-incubated. At intervals, 200 μL HBSS was sampled from the basolateral side for TGC concentration analysis via HPLC.

[7] = Hemolysis assay; design: species or system rats; conditions: rat; 2% erythrocyte suspension, 37 °C, three hours, relative to positive control (water); read-out: hemolysis rate
Procedure: The hemolytic activity of Aβ11/T80@CSs was assessed using erythrocytes from healthy rats. Blood samples were collected, and red blood cells were isolated through centrifugation, followed by suspension in normal saline to create a 2% erythrocyte solution. Two milliliters of this erythrocyte suspension were mixed with free TGC, CSs, or Aβ11/T80@CSs and incubated at 37 °C for three hours. Post-incubation, the samples were centrifuged, and the absorbance of the supernatant was measured using spectrophotometry at 570 nm. Purified water and normal saline served as positive and negative controls, respectively. The percentage of hemolysis was calculated using the following formula: Hemolysis%=Asample-Anegative/Apositive-Anegativ×100%

For CN(C)c1cc(NC(=O)CNC(C)(C)C)c(O)c2c1C[C@H]1C[C@H]3[C@H](N(C)C)C(O)=C(C(N)=O)C(=O)[C@@]3(O)C(O)=C1C2=O [Free-TGC, Tigecycline], the cell survival rate [1] was “exceeded 80%”, the “time to complete release” value [2] was “within three hours” and the “histopathology of heart, liver, spleen, lungs and kidneys” value [3] was “no significant pathological alterations”. It also gave an MIC [4] of 2 µg/mL (≈ 3.41 µM), a Cmax [5] of 3700 ± 620 ng/mL and a Tmax [5] of 15 min. The clearance [5] was 20 mL/min/kg, the half-life [5] was 46.2 ± 14.4 min and the AUC(0-t) ([5]; 0-8 h) was 8480 ± 2900 ng·h/mL. For the same molecule, the MRT last ([5]; read-out: MRT(0-t)) was 156 ± 9.6 min, the “permeability / transport capacity across in vitro BBB model” value [6] was “lowest permeability” and the hemolysis at 3 h [7] was under 5%.
